± gives the standard deviation of the averaged measurements.
What was measured:
Assay in all cases: level (log10 ratio to DMSO vehicle control); higher = higher biomarker level / cell amount than vehicle control
[1] = compound: OCC(F)(F)C(F)(F)C(F)(F)C(F)(F)C(F)(F)C(F)(F)CO [1H,1H,8H,8H-Perfluorooctane-1,8-diol] (in DMSO)
Method: (§1)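 BioMAP Diversity Plus panel of 12 human primary cell co-culture systems (3C, 4H, LPS, SAg, BT, BF4T, BE3C, CASM3C, HDF3CGF, KF3CT, MyoF, Mphg). Compounds were added 1 h before stimulation and left for 24 h (MyoF 48 h; BT 72 h for soluble read-outs or 6 d for IgG). Biomarkers were read by ELISA, cytotoxicity by SRB, PBMC viability and proliferation by Alamar Blue. Each well value was divided by the mean of 8 DMSO control wells on the same plate and log10 transformed; duplicate blinded samples were tested at 4 concentrations.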

[2] = compound: CCOC(=O)CC(=O)C(F)(F)C(F)(F)F [Ethyl pentafluoropropionyl acetate] (in DMSO)
Method: as §1

Perfluoroundecanoic acid = compound: O=C(O)C(F)(F)C(F)(F)C(F)(F)C(F)(F)C(F)(F)C(F)(F)C(F)(F)C(F)(F)C(F)(F)C(F)(F)F [Perfluoroundecanoic acid] (in DMSO); conditions: 6700 nM
Method: as §1

[3] = compound: O=S(=O)(O)CCC(F)(F)C(F)(F)C(F)(F)C(F)(F)C(F)(F)C(F)(F)C(F)(F)C(F)(F)F [8:2 Fluorotelomer sulfonic acid] (in DMSO)
Method: as §1

[4] = compound: OCC(F)(F)OC(F)(F)C(F)(F)OC(F)(F)C(F)(F)OC(F)(F)CO [1H,1H,11H,11H-Perfluorotetraethylene glycol] (in DMSO)
Method: as §1

Perfluorononanoic acid = compound: O=C(O)C(F)(F)C(F)(F)C(F)(F)C(F)(F)C(F)(F)C(F)(F)C(F)(F)C(F)(F)F [Perfluorononanoic acid] (in DMSO)
Method: as §1

[5] = compound: CO[Si](C)(CCC(F)(F)C(F)(F)C(F)(F)C(F)(F)C(F)(F)C(F)(F)F)OC [Dimethoxymethyl((perfluorohexyl)ethyl)silane] (in DMSO)
Method: as §1

[6] = compound: O=C(O)CCC(F)(C(F)(F)F)C(F)(F)F [4,4-bis(Trifluoromethyl)-4-fluoropropanoic acid] (in DMSO)
Method: as §1

| Test System | level (log10) ([1]; 6700 nM) | level (log10) ([1]; 20000 nM) | level (log10) ([1]; 60000 nM) | level (log10) ([2]; 6700 nM) | level (log10) ([2]; 20000 nM) | level (log10) ([2]; 60000 nM) | level (log10) (Perfluoroundecanoic acid) | level (log10) ([3]; 6700 nM) | level (log10) ([3]; 20000 nM) | level (log10) ([3]; 60000 nM) | level (log10) ([4]; 6700 nM) | level (log10) ([4]; 20000 nM) | level (log10) ([4]; 60000 nM) | level (log10) (Perfluorononanoic acid; 6700 nM) | level (log10) (Perfluorononanoic acid; 20000 nM) | level (log10) ([5]; 6700 nM) | level (log10) ([5]; 20000 nM) | level (log10) ([6]; 6700 nM) | level (log10) ([6]; 20000 nM) | level (log10) ([6]; 60000 nM) |
| --- | --- | --- | --- | --- | --- | --- | --- | --- | --- | --- | --- | --- | --- | --- | --- | --- | --- | --- | --- | --- |
| LPS:CD106/VCAM-1 | -0.008 ± 0.0057 | -0.011 ± 0.023 | -0.0275 ± 0.018 | 0.004 ± 0.011 | -0.0105 ± 0.037 | -0.0135 ± 0.026 | -0.0095 ± 0.043 | -0.0135 ± 0.073 | -0.021 ± 0.065 | -0.0535 ± 0.077 | 0.001 ± 0.045 | -0.002 ± 0.034 | -0.041 ± 0.052 | -0.017 ± 0.014 | -0.002 ± 0.0057 | -0.0105 ± 0.04 | 0.0095 ± 0.0035 | -0.016 ± 0.034 | -0.0255 ± 0.0092 | -0.023 ± 0.021 |
| LPS:CD141/Thrombomodulin | -0.008 ± 0.027 | -0.032 ± 0.0042 | 0.028 ± 0.034 | 0.0635 ± 0.016 | 0.0625 ± 0.012 | 0.077 ± 0.055 | 0.018 ± 0.016 | 0.007 ± 0.11 | 0.0505 ± 0.071 | 0.205 ± 0.016 | 0.0725 ± 0.076 | 0.09 ± 0.067 | 0.157 ± 0.056 | -0.018 ± 0.048 | -0.018 ± 0.017 | 0.024 ± 0.034 | 0.006 ± 0.016 | -0.0025 ± 0.0035 | -0.009 ± 0.028 | -0.002 ± 0.0099 |
| LPS:CD142/Tissue Factor | 0.011 ± 0.1 | 0.0075 ± 0.033 | -0.0095 ± 0.054 | -0.01 ± 0.021 | -0.032 ± 0.028 | -0.002 ± 0.033 | -0.023 ± 0.014 | 0.0005 ± 0.067 | 0.024 ± 0.088 | -0.0025 ± 0.011 | -0.0455 ± 0.016 | -0.0665 ± 0.0064 | -0.0575 ± 0.07 | 0.01 ± 0.016 | -0.001 ± 0.02 | 0.011 ± 0.048 | 0.017 ± 0.058 | 0.045 ± 0.031 | 0.038 ± 0.059 | 0.02 ± 0.051 |
| LPS:CXCL8/IL-8 | -0.0075 ± 0.011 | -0.0305 ± 0.0064 | -0.0125 ± 0.021 | -0.022 ± 0.025 | -0.01 ± 0.0071 | -0.0005 ± 0.023 | -0.04 ± 0.035 | 0.01 ± 0.11 | 0.0485 ± 0.012 | -0.053 ± 0.17 | -0.0025 ± 0.00071 | -0.01 ± 0.0057 | -0.02 ± 0.011 | 0.024 ± 0.013 | 0.0355 ± 0.0092 | 0.0325 ± 0.03 | 0.065 ± 0.0071 | 0.011 ± 0.0028 | 0.007 ± 0.02 | 0.0135 ± 0.054 |
| LPS:IL-1alpha | -0.0355 ± 0.049 | -0.064 ± 0.016 | -0.004 ± 0.017 | 0 ± 0.034 | -0.0335 ± 0.025 | 0.0115 ± 0.019 | -0.103 ± 0.019 | -0.0195 ± 0.03 | -0.016 ± 0.037 | -0.283 ± 0.19 | -0.02 ± 0.024 | -0.017 ± 0.0057 | -0.006 ± 0.042 | -0.0315 ± 0.0064 | -0.03 ± 0.014 | 0.005 ± 0.03 | 0.0235 ± 0.0092 | 0.009 ± 0.072 | 0.0215 ± 0.022 | 0.0215 ± 0.032 |
| LPS:M-CSF | -0.0285 ± 0.019 | -0.025 ± 0.017 | -0.013 ± 0.048 | -0.021 ± 0.011 | 0.0085 ± 0.019 | 0.012 ± 0.088 | 0.049 ± 0.0028 | -0.016 ± 0.041 | 0.0075 ± 0.054 | -0.0795 ± 0.088 | 0.0105 ± 0.03 | -0.0025 ± 0.036 | 0.0355 ± 0.011 | -0.001 ± 0.045 | 0.035 ± 0.024 | -0.022 ± 0.017 | 0.025 ± 0.041 | -0.0345 ± 0.0021 | -0.0145 ± 0.029 | -0.0245 ± 0.00071 |
| LPS:SRB | 0.0005 ± 0.0092 | -0.003 ± 0.0014 | -0.0035 ± 0.023 | 0.0015 ± 0.0021 | 0 ± 0.0028 | -0.004 ± 0.0085 | 0.005 ± 0.0057 | -0.0085 ± 0.005 | -0.0095 ± 0.019 | -0.02 ± 0.018 | -0.0175 ± 0.0078 | -0.0255 ± 0.013 | -0.086 ± 0.013 | -0.0065 ± 0.00071 | 0.0045 ± 0.0078 | -0.0025 ± 0.0064 | 0.003 ± 0.0085 | -0.0045 ± 0.0064 | -0.0035 ± 0.00071 | 0.0135 ± 0.0092 |

— the supplement of paper PMC10331698
